Reference: the supplement of paper PMC10307832

How the values were obtained:
Test in all cases: relative viability (nuclei count vs DMSO), 5 days (fraction); higher = more cells survive
PAC-1 + Tozasertib = compound: C=CCc1cccc(/C=N/NC(=O)CN2CCN(Cc3ccccc3)CC2)c1O [PAC-1] + Cc1cc(Nc2cc(N3CCN(C)CC3)nc(Sc3ccc(NC(=O)C4CC4)cc3)n2)n[nH]1 [Tozasertib] (partner 0.1 µM)
Method in brief: (§1)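 Values are medians from duplicate plates. Each reflects relative viability, defined as the nuclei count of treated wells over that of vehicle wells. Lung cancer cell lines in 1536-well plates were pin-tool dosed one day after seeding with one drug alone or with a fixed anchor-drug dose plus five library-drug doses (not always all listed) in √10 steps, then fixed, stained and imaged at 4× after 5 days.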

PAC-1 + Olaparib = compound: C=CCc1cccc(/C=N/NC(=O)CN2CCN(Cc3ccccc3)CC2)c1O [PAC-1] + O=C(c1cc(Cc2n[nH]c(=O)c3ccccc23)ccc1F)N1CCN(C(=O)C2CC2)CC1 [Olaparib] (partner 8 µM)
Method in brief: as §1

Ibrutinib + Linsitinib = compound: C=CC(=O)N1CCC[C@@H](n2nc(-c3ccc(Oc4ccccc4)cc3)c3c(N)ncnc32)C1 [Ibrutinib] + C[C@]1(O)C[C@@H](c2nc(-c3ccc4ccc(-c5ccccc5)nc4c3)c3c(N)nccn32)C1 [Linsitinib] (partner 1 µM)
Method in brief: as §1

PAC-1 + Lapatinib = compound: C=CCc1cccc(/C=N/NC(=O)CN2CCN(Cc3ccccc3)CC2)c1O [PAC-1] + CS(=O)(=O)CCNCc1ccc(-c2ccc3ncnc(Nc4ccc(OCc5cccc(F)c5)c(Cl)c4)c3c2)o1 [Lapatinib] (partner 2 µM)
Method in brief: as §1

SK-MES-1
relative viability (PAC-1 + Tozasertib; first compound 0.02 µM): 0.9
relative viability (PAC-1 + Tozasertib; first compound 0.06325 µM): 0.916
relative viability (PAC-1 + Tozasertib; first compound 0.2 µM): 0.892
relative viability (PAC-1 + Tozasertib; first compound 2 µM): 0.916
relative viability (PAC-1 + Olaparib; first compound 0.02 µM): 0.717
relative viability (PAC-1 + Olaparib; first compound 0.06325 µM): 0.711
relative viability (PAC-1 + Olaparib; first compound 0.2 µM): 0.635
relative viability (PAC-1 + Olaparib; first compound 2 µM): 0.437
relative viability (Ibrutinib + Linsitinib; first compound 0.005 µM): 1.06
relative viability (Ibrutinib + Linsitinib; first compound 0.01581 µM): 0.937
relative viability (Ibrutinib + Linsitinib; first compound 0.05 µM): 1.11
relative viability (Ibrutinib + Linsitinib; first compound 0.1581 µM): 1.06
relative viability (Ibrutinib + Linsitinib; first compound 0.5 µM): 0.447
relative viability (PAC-1 + Lapatinib; first compound 0.02 µM): 0.455
relative viability (PAC-1 + Lapatinib; first compound 0.06325 µM): 0.457
relative viability (PAC-1 + Lapatinib; first compound 0.2 µM): 0.443
relative viability (PAC-1 + Lapatinib; first compound 2 µM): 0.445
